Experimental data reported in patent US20240261276A1, “NITROXOLINE FOR USE IN THE TREATMENT OF CUTANEOUS NEUROFIBROMA” (HEALX LTD, priority 2021, published 2024).

How the values were obtained:
[1] = tested on: cNF tumour cells (Tom+) in the skin of Nf1-KO mice; assay: In vivo drug testing in Nf1-KO mice with established cNFs; parameters: species or system mouse; details: one month
Description: This study uses the same mouse model that was used for in vitro testing, the Prss56Cre/+, R26tdTom/+, NF1f/l mouse (Radomska et a., 2019). This study is a standard experimental design in the field with endpoints being terminal and not longitudinal throughout study.
Prss56Cre/+, R26tdTom/+, NF19/fl herein referred to as Nf1-KO mice develop cNFs after one year of age. However, cNF development occurs at an earlier age after skin injury induced by mice fighting, which is normal mouse behaviour. In this experiment, at least five six-week old Nf1-KO male mice were placed in a cage together, once the mice had sustained a level of skin injury via fighting they were removed from the cage and monitored. At approximately three months of age the mice that had sustained fighting injuries developed several cNFs. As a fluorescent reporter gene is turned on in cells that have Nf1 deleted, cNF development could be monitored via fluorescent imaging of the skin using an epifluorescent microscope (Leica MZ75). After 1-2 months mice that had established, mature cNFs were then enrolled into a drug treatment study. […]
Schwann cells that are Nf1-null also express the fluorescent reporter tomato (Tom+). cNFs are derived from Nf1-null SCs which are Tom+, therefore fluorescence can be used to identify tumours. […]

Tom+ NF1+/− cells [2] = assay: Proliferative activity (CellTrace, cytometry) in floating sphere culture, control cells; assay type: cell-based, mouse
Description: This study uses a Nf1-KO mouse strain(Prss56Cre/+, R26tdTom/+, NF1fl/fl) developing cutaneous neurofibromas (cNFs) that faithfully recapitulates human disease (Radomska et a., 2019). In this model, simultaneous bi-allelic loss of Nf1 and expression of Tomato fluorescent reporters were targeted into glial-stem like cells at the origin of cNFs. The assay was performed ex vivo using non-adherent cells in which Tomato expressing Nf1−/− and Nf1+/− stem-like cells from skin can be amplified, and their properties further characterized. […]
This in vitro culture system uses Tomato (Tom)+ stem-like glial cells at the origin of cNFs that can be amplified and propagated for the long periods. […] In this study we have analysed the drug effect in Tom+ from NF1−/− and NfF1+/− mice.
In the present study, floating sphere culture of Nf1+/−(Prss56Cre, R26Tom, Nf1flox/+) and Nf1−/− (Prss56Cre, R26Tom, Nf1flox/flox) glial cells isolated from newborn mouse skin were used. Then they are plated and treated and analysed independently. […]
For the analysis of proliferative activity, a cell tracker lipophilic dye (CellTrace Proliferation Kit, Thermo Fishers) was used. […] Cells were incubated for 72 h and proliferative activity was measured by cytometry analysis using LSR Fortessa X20 (BD Biosciences). This method measures a mean fluorescence intensity (MIF) for each condition. […]

Tom+ NF1+/− cells [3] = assay: Cell death assay (DAPI, cytometry) in floating sphere culture, control cells; assay type: cell-based, mouse; details: for Cell death of NF1+/− cells at highest concentration: 100 μM, excluded from analysis
Description: (§1) This study uses a Nf1-KO mouse strain(Prss56Cre/+, R26tdTom/+, NF1fl/fl) developing cutaneous neurofibromas (cNFs) that faithfully recapitulates human disease (Radomska et a., 2019). In this model, simultaneous bi-allelic loss of Nf1 and expression of Tomato fluorescent reporters were targeted into glial-stem like cells at the origin of cNFs. The assay was performed ex vivo using non-adherent cells in which Tomato expressing Nf1−/− and Nf1+/− stem-like cells from skin can be amplified, and their properties further characterized. […] In this system, Nf1−/− cells express high levels of p-ERK (as expected due to the permanent activation of the RAS pathway), proliferate much faster compared to controls and preserve the capacity to reform spheres after dissociation and re-plating.
(§2) This in vitro culture system uses Tomato (Tom)+ stem-like glial cells at the origin of cNFs that can be amplified and propagated for the long periods. Briefly, skin from young mutant (NF1−/−) and control (NF1+/−) mice was dissected, dissociated and cell suspension incubated in the non-adherent condition with the presence of two mitogens, FGF and EGF. In such conditions only stem-like cells survive, proliferate and form compact multicellular floating structures called neurospheres. Since, in addition to the Tom+ glial stem-like cells, skin contains various other types of stem cells (Tom−), the neurospheres are composed of the intermingled Tom+ and Tom− cells. While in the mutant condition, neurospheres contain Tom+, Nf1−/− and Tom−, Nf1+/+ cells, in the Nf1+/− control condition neurospheres are composed of Tom+, Nf1+/− and Tom−, Nf1+/+ cells. In this study we have analysed the drug effect in Tom+ from NF1−/− and NfF1+/− mice.
(§3) In the present study, floating sphere culture of Nf1+/−(Prss56Cre, R26Tom, Nf1flox/+) and Nf1−/− (Prss56Cre, R26Tom, Nf1flox/flox) glial cells isolated from newborn mouse skin were used. Then they are plated and treated and analysed independently. With this intent, Nf1+/− and Nf1−/− spheres were amplified until passage 3 (1 passage corresponds to 7 days of culture). At the end of PO (10 days), cells were split into 4 identical batches (clones 1-4), and were amplified to P3 (FIG. 1).
(§4) At the end of P3, spheres from each clone were dissociated and cells transferred into two 12 well plates. 6 different concentrations (100 μm, 33 μm, 10 μm, 3 μm, 1 μm and 0 μm) of drug were added and cells were incubated for 72 h. An additional 12 well plate containing cells with DMSO (vehicle used for the drug resuspension) was used as a reference for the normalization of results. After 72 h analyses was performed the on the non-fixed cells: proliferative and cell death assay.
(§5) At 72 h of culture, cells were labelled for quantification of cell death using DAPI (4′,6-diamidino-2-phenylindole). Labelled cells were analyzed by cytometry with LSR Fortessa X20 (BD Biosciences).

Tom+ NF1−/− cells [4] = assay: Cell death assay (DAPI, cytometry) in floating sphere culture, mutant cells; assay type: cell-based, mouse; details: for Ratio dead cells mean / Cell death of NF1−/− cells at highest concentration: 72 h; for Ratio dead cells mean: NF1−/− cells; for Cell death of NF1−/− cells at highest concentration: 100 μM, excluded from analysis
Description: as §1, §2, §3, §4, §5

Tom+ NF1−/− cells [5] = assay: Proliferative activity (CellTrace, cytometry) in floating sphere culture, mutant cells; assay type: cell-based, mouse; details: for Ratio MIFmean (proliferation): NF1−/− cells, normalised to DMSO
Description: as §1, §2, §3, §4
For the analysis of proliferative activity, a cell tracker lipophilic dye (CellTrace Proliferation Kit, Thermo Fishers) was used. The cell tacker was added at the same time as the drugs. Cells were incubated for 72 h and proliferative activity was measured by cytometry analysis using LSR Fortessa X20 (BD Biosciences). This method measures a mean fluorescence intensity (MIF) for each condition. The condition with DMSO was used as a reference.

[6] = incubation with Selumetinib, concentration not given

O=[N+]([O-])c1ccc(O)c2ncccc12 [Nitroxoline, 5-nitroquinolin-8-ol]
Overall abundance of cNF tumour cells in the skin ([1]; 120 mg/kg once daily): reduces the overall abundance of cNF tumour cells | Tumour size versus vehicle treated mice (fluorescent imaging of Tom+ cells) ([1]; 120 mg/kg oral gavage once a day (5 days on, 2 days off)): smaller | Effect on proliferation of NF1+/− cells (Tom+ NF1+/− cells [2]; 33 μM to 1 μM, 72 h): not affected | Effect on cell death of NF1+/− cells (Tom+ NF1+/− cells [3]; 33 μM, 72 h): without affecting NF1+/− cells | Cell death of NF1+/− cells at highest concentration (Tom+ NF1+/− cells [3]; 72 h): massive cell death | Cell death of NF1+/− cells at highest concentration (Tom+ NF1+/− cells [3]; 72 h, listed as nitroxoline): massive nonspecific death | Effect on cell death of NF1+/− cells (control conditions) (Tom+ NF1+/− cells [3]; lower concentrations (10 μM and below), 72 h): without affecting control conditions | Ratio dead cells mean (Tom+ NF1−/− cells [4]; 10 μM): 2,04+/−0,63 | Ratio dead cells mean (Tom+ NF1−/− cells [4]; 33 μM): 8,86+/−0,66 | Cell death of NF1−/− cells at highest concentration (Tom+ NF1−/− cells [4]): massive cell death | Cell death of NF1−/− cells at highest concentration (Tom+ NF1−/− cells [4]; listed as nitroxoline): massive nonspecific death | Ratio MIFmean (proliferation) (Tom+ NF1−/− cells [5]; 1 μM, 72 h): 0,7+/−0,26 | Ratio MIFmean (proliferation) (Tom+ NF1−/− cells [5]; 3 μM, 72 h): 0,60+/−0,22 | Ratio MIFmean (proliferation) (Tom+ NF1−/− cells [5]; 10 μM, 72 h): 0,5+/−0,18 | Effect on proliferative activity of NF1−/− cells (Tom+ NF1−/− cells [5]; 33 μM to 1 μM, 72 h, except clone 3): reduced proliferative activity | Ratio MIFmean (proliferation) (Tom+ NF1−/− cells [5]; 33 μM, 72 h): 0,39+/−0,11

Cn1cnc2c(F)c(Nc3ccc(Br)cc3Cl)c(C(=O)NOCCO)cc21 [Selumetinib, 6-(4-bromo-2-chloroanilino)-7-fluoro-N-(2-hydroxyethoxy)-3-methylbenzimidazole-5-carboxamide]
Effect on proliferative activity of Nf1+/− cells (Tom+ NF1+/− cells [2]; [6]): without affecting Nf1+/− cells | Effect on death of Nf1+/− cells (Tom+ NF1+/− cells [3]; [6]): without affecting Nf1+/− cells | Effect on death of Nf1−/− (mutant) cells (Tom+ NF1−/− cells [4]; [6]): promotes death of mutant | Effect on proliferative activity of Nf1−/− (mutant) cells (Tom+ NF1−/− cells [5]; [6]): decreases proliferative activity
